From ChEMBL document CHEMBL4007403, “Identification of Triazolothiadiazoles as Potent Inhibitors of the dCTP Pyrophosphatase 1” (J Med Chem, 2017) come the findings set out here.

Data set [1] in a line: Half life in human liver microsomes up to 100 uM preincubated for 10 mins followed by NADPH addition by UPLC-MS analysis. It counts as ADME, microsome. On the technique in general: Microsomes from liver hold many membrane-bound enzymes, among them those of drug oxidation.
Data set [2] in a line: Hepatic extraction ratio in mouse liver microsomes up to 100 uM preincubated for 10 mins followed by NADPH addition by UPLC-MS analysis. The data set is classed as ADME, microsome. The conditions noted are these: read-out: ERH.
The nature of data set [3]: Hepatic extraction ratio in human liver microsomes up to 100 uM preincubated for 10 mins followed by NADPH addition by UPLC-MS analysis. The data set is classed as ADME, microsome. The settings on record: read-out: ERH.
The next data set has as its target T1, dCTP pyrophosphatase 1 (Homo sapiens, UniProt Q9H773).
T1 sequence (Q9H773 whole entry): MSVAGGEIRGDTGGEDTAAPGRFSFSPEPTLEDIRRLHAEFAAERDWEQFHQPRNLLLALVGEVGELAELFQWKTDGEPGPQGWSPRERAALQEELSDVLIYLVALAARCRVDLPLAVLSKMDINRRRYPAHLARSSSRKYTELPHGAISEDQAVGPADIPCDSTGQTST
The experiment in a line: Inhibition of recombinant human N-terminal His-tagged dCTPase 1 expressed in Escherichia coli BL21(DE3)pLysS using dCTP as substrate after 1 hr by malachite green reagent based assay.

For data set [4], the target named is T2, dCTP pyrophosphatase 1 (Homo sapiens) (UniProt Q9H773).
T2 sequence (whole entry): T1 sequence (Q9H773 whole entry)
Description: Binding affinity to recombinant human N-terminal His-tagged dCTPase 1 expressed in Escherichia coli BL21(DE3)pLysS assessed as change in melting temperature at 33 uM by Sypro Orange dye based DSF assay

The nature of data set [5]: Stability of the compound in biochemical assay buffer under basic mobile phase conditions by HPLC-MS analysis. The data set is classed as physicochemical.
The nature of data set [6]: Intracellular bioavailability in human HL60 cells assessed as ratio of fraction unbound in cells to intracellular drug accumulation at 0.5 uM after 45 mins by LC-MS/MS analysis. The data set is classed as ADME. The settings on record: hl-60, 0.75 h.
The nature of data set [7]: Half life in mouse liver microsomes up to 100 uM preincubated for 10 mins followed by NADPH addition by UPLC-MS analysis. It counts as ADME, microsome.
A short description of data set [8]: Stability of the compound in DMSO measured after several months by HPLC-MS analysis. It counts as physicochemical.
Data set [9] can be described thus: Kinetic solubility of the compound. It counts as physicochemical. The settings on record: read-out: Kinetic_solubility.
A short description of data set [10]: Stability of the compound in biochemical assay buffer under mildly acidic mobile phase conditions by HPLC-MS analysis. It counts as physicochemical.
For data set [11], the target named is T3, Uridine diphosphate glucose pyrophosphatase NUDT14 (Homo sapiens, UniProt O95848).
T3 sequence (O95848 whole entry): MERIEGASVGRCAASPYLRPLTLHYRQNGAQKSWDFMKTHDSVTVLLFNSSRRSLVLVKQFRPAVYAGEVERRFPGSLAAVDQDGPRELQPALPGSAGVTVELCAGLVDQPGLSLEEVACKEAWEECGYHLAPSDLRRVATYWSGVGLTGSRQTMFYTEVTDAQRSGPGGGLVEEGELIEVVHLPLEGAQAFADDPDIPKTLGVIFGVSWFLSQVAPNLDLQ
The experiment in a line: Inhibition of human His-tagged NUDT14 expressed in bacterial expression system after 1 hr by malachite green reagent based assay.

Data set [12] has as its target T4, ADP-ribose pyrophosphatase, mitochondrial (Homo sapiens, UniProt Q9BW91).
T4 sequence (Q9BW91 whole entry): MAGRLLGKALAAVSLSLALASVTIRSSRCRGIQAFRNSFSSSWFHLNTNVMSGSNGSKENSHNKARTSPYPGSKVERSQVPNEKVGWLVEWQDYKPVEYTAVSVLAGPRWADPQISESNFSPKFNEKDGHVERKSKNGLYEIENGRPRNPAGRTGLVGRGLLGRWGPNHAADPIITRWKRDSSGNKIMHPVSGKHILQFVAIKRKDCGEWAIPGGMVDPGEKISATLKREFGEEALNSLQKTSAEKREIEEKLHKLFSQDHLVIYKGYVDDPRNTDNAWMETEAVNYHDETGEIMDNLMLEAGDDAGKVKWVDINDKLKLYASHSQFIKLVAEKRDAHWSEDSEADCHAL
The experiment in a line: Inhibition of NUDT9 (unknown origin) by malachite green reagent based assay.

Data set [13] is described as follows: Inhibition of human His-tagged dUTPase expressed in bacterial expression system after 1 hr by malachite green reagent based assay.
In another data set the test system is HL-60. The experiment in a line: Cytotoxicity against human HL60 cells assessed as decrease in cell viability at 1 to 5 uM after 72 hrs by resazurin assay. The data set is classed as cell-based. The settings on record: hl-60, 72 h. (Resazurin is reduced to fluorescent resorufin, in cell work by metabolically active cells.)
The target in data set [14] is T5, Nucleotide triphosphate diphosphatase NUDT15 (Homo sapiens, UniProt Q9NV35).
T5 sequence (Q9NV35 whole entry): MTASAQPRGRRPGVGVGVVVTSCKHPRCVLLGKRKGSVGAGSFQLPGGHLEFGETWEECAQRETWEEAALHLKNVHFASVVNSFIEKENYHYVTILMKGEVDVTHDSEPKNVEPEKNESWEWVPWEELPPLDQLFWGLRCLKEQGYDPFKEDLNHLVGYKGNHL
The experiment in a line: Inhibition of human His-tagged NUDT15 expressed in bacterial expression system after 1 hr by malachite green reagent based assay.

The target of data set [15] is ADP-sugar pyrophosphatase (Homo sapiens, UniProt Q9UKK9). The experiment in a line: Inhibition of human His-tagged NUDT5 expressed in bacterial expression system in presence of ADP after 1 hr by malachite green reagent based assay.
Data set [16] concerns the target Oxidized purine nucleoside triphosphate hydrolase (Homo sapiens, UniProt P36639). The experiment in a line: Inhibition of recombinant human MTH1 using dGTP as substrate after 1 hr by malachite green reagent based assay.
In data set [17] the target is Inosine triphosphate pyrophosphatase (Homo sapiens, UniProt Q9BY32). The experiment in a line: Inhibition of human His-tagged ITPase expressed in bacterial expression system after 1 hr by malachite green reagent based assay.
In data set [18] the target is Bis(5'-nucleosyl)-tetraphosphatase [asymmetrical] (Homo sapiens, UniProt P50583). The experiment in a line: Inhibition of NUDT2 (unknown origin) by malachite green reagent based assay.
Sequence of Bis(5'-nucleosyl)-tetraphosphatase [asymmetrical] (P50583 whole entry): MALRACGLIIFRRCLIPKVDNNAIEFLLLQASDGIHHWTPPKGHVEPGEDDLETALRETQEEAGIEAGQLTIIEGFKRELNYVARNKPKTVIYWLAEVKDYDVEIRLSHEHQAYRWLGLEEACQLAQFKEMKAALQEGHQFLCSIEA
A short description of data set [19]: Metabolic stability in human plasma after 4 hrs. It counts as ADME, cell-free. The conditions noted are these: read-out: Stability.
A short description of data set [20]: Fraction unbound in human plasma. The data set is classed as ADME, cell-free.

Values after ≈ are worked out from the molar mass of the structure shown.

By half-life is commonly meant the time needed for the level to fall by half in the phase considered. Read a low half-life as rapid decline. The term IC50 denotes the concentration that gives 50% inhibition. By ΔTm is commonly meant the shift of the melting midpoint relative to a reference. As to `Cc1cc(-c2nn3c(-c4cccs4)nnc3s2)n[nH]1`, the results for the half-life in data set [1] and in data set [7] were 14 min and 2 min, respectively. Further, the hepatic extraction ratio in data set [2] was 0.97; in data set [3], 0.79. In addition, at dCTP pyrophosphatase 1, the IC50 was above 10000 nM. Further, the thermal shift (ΔTm) in data set [4] was 0.9 °C. In addition, the Stability entry in data set [5], in data set [8] and in data set [10] was “Stable” throughout. Further, the Ratio in data set [6] is 0.78. Moreover, the solubility kinetic in data set [9] worked out at 58 µM (≈ 16.7 µg/mL).
Take `COc1ccc(-c2nn3c(-c4cccs4)nnc3s2)cc1OC`: the half-life in data set [1] worked out at 4 min; in data set [7], 1 min. Moreover, the 50% inhibitory concentration (IC50) in data set [11], in [12], in data set [13], in [14], in data set [15] and in data set [16] was above 100000 nM in each case. Also, the IC50 in data set [17] and in data set [18] was above 100000 nM throughout. Further, in the data set on HL-60, the Activity entry is “Non-Toxic”. For the same compound, the Stability result in data set [5], in data set [8] and in data set [10] was “Stable” throughout. The solubility kinetic in data set [9] turned out to be 3 µM (≈ 1.03 µg/mL).
As for `COc1ccc(-c2nn3c(-c4ccco4)nnc3s2)cc1OC`, the figures for the half-life in data set [1] and in data set [7] were 5 min and 1 min, respectively. Further, the hepatic extraction ratio amounted to 0.99 in [2] and 0.91 in data set [3]. The IC50 at dCTP pyrophosphatase 1 was found to be 19 nM. In addition, the Activity result with HL-60 was “Non-Toxic”. Besides, the Stability result in data set [5], in data set [8] and in data set [10] was “Stable” each time. Moreover, the solubility kinetic in data set [9] is 19 µM (≈ 6.24 µg/mL).
For `Fc1ccc(-c2nn3c(-c4ccccn4)nnc3s2)cc1`, the IC50 on dCTP pyrophosphatase 1 was found to be 332 nM. In addition, the Stability result in [5], in data set [8] and in data set [10] was “Stable” each time.
In the case of `c1ccc(-c2nnc3sc(-c4ccc5c(c4)OCO5)nn23)nc1`, the results for the half-life in data set [1] and in [7] were 3 min and 1 min, respectively. Moreover, the hepatic extraction ratio is 0.99 in [2] and 0.96 in data set [3]. Moreover, the 50% inhibitory concentration (IC50) at dCTP pyrophosphatase 1 is 190 nM. Further, the thermal shift (ΔTm) in [4] was 3.1 °C. Besides, the Stability result in [5], in [8] and in data set [10] was “Stable” in each case. Also, the Ratio in [6] was determined as 3.5. Moreover, the solubility kinetic in data set [9] worked out at 25 µM (≈ 8.08 µg/mL).
As to `c1csc(-c2nnc3sc(-c4cnccn4)nn23)c1`, the results for the half-life in [1] and in [7] were 6 min and 1 min, respectively. In addition, the figures for the hepatic extraction ratio in data set [2] and in data set [3] were 0.99 and 0.89, respectively. Also, at dCTP pyrophosphatase 1, the IC50 was determined as 170 nM. In addition, the Stability entry in data set [5], in data set [8] and in [10] was “Stable” throughout. The solubility kinetic in data set [9] worked out at 30 µM (≈ 8.59 µg/mL).
As for `CN(C)c1ccc(-c2nn3c(-c4ccccn4)nnc3s2)cc1`, the 50% inhibitory concentration (IC50) on dCTP pyrophosphatase 1 was 291 nM. The Stability result in data set [5], in data set [8] and in [10] was “Stable” each time.
As for `Cc1ccc(-c2nn3c(-c4ccccn4)nnc3s2)cc1C`, the 50% inhibitory concentration (IC50) at dCTP pyrophosphatase 1 came to 227 nM. Besides, the Stability entry in data set [5], in data set [8] and in data set [10] was “Stable” in each case.
Take `Cc1cc(-c2nn3c(-c4ccccn4)nnc3s2)c2ccccc2n1`: the IC50 on dCTP pyrophosphatase 1 turned out to be 314 nM. For the same compound, the Stability result in data set [5], in data set [8] and in [10] was “Stable” in each case.
On to `C(=C\c1cccnc1)/Cc1nn2c(-c3ccccc3)nnc2s1`, for which, on dCTP pyrophosphatase 1, the IC50 is 558 nM. The Stability result in [5], in data set [8] and in data set [10] was “Stable” in each case.
Consider `CCCc1nnc2sc(-c3cccc(OC)c3)nn12`, for which the IC50 at dCTP pyrophosphatase 1 is 7460 nM. The Stability result in data set [5], in data set [8] and in data set [10] was “Stable” throughout.
Regarding `CCCCc1nnc2sc(-c3cccc(OC)c3)nn12`, the IC50 on dCTP pyrophosphatase 1 worked out at 2060 nM. Moreover, the Stability entry in data set [5], in data set [8] and in [10] was “Stable” each time.
Consider `COc1ccc(-c2nn3c(-c4cccnc4)nnc3s2)cc1`, for which the IC50 at dCTP pyrophosphatase 1 was 2610 nM. In addition, the Stability entry in [5], in data set [8] and in data set [10] was “Stable” throughout.
One may read the fraction unbound as the share of the substance not bound to proteins or other matrix. Higher therefore signals weak binding. In the case of `COc1ccc(-c2nn3c(-c4ccccn4)nnc3s2)cc1OC`, the half-life in [1] is 21 min; in [7], 3 min. The hepatic extraction ratio in data set [2] came to 0.95; in data set [3], 0.67. Besides, the IC50 at dCTP pyrophosphatase 1 was in the range of 79 to 94 nM. Besides, the ΔTm in data set [4] was 9.4 °C. In addition, in the data set with HL-60, the Activity entry was “Non-Toxic”. Also, in data set [19], the remaining at 4 h was found to be 100%. The Stability result in data set [5], in data set [8] and in [10] was “Stable” throughout. Besides, the Ratio in data set [6] came out at 0.15. The compound also had an unbound share (fraction unbound) in data set [20] of 0.063. Further, the solubility kinetic in data set [9] amounted to 27 µM (≈ 9.16 µg/mL).
